Data set [1] addresses T1, hSK3 channels (Homo sapiens, UniProt Q9UGI6).
T1 construct: expressed in transfected cells; host or cells: HEK293
The data set can be described thus: Whole-cell patch-clamp recording of ionic current through SK channels (subtype 3) in HEK293 cells expressing hSK3. It counts as cell-based. Conditions: Stimulating Concentration required for increasing the baseline current by 100%, current at -75 mV, free Ca2+ 0.3-0.4 μM, room temperature. As for the experimental part:
The ionic current through small-conductance Ca^2+-activated K^+ channels (SK channels, subtype 3) is recorded using the whole-cell configuration of the patch-clamp technique.
HEK293 tissue culture cells expressing hSK3 channels were grown in DMEM (Dulbecco's Modified Eagle Medium) supplemented with 10% FCS (foetal calf serum) at 37° C. in 5% CO2. At 60-80% confluency, cells were harvested by trypsin treatment and seeded on cover slips.
Experiments are carried out on one of several patch-clamp set-ups. Cells plated on coverslips are placed in a 15 μl perfusion chamber (flowrate ˜1 ml/min) mounted on an IMT-2 microscope. The microscopes are placed on vibration-free tables in grounded Faraday cages. All experiments are performed at room temperature (20-22° C.). EPC-9 patch-clamp amplifiers (HEKA-electronics, Lambrect, Germany) are connected to Macintosh computers via ITC16 interfaces. Data are stored directly on the hard-disk and analysed by IGOR software (Wavemetrics, Lake Oswega, Oreg., USA).
The whole-cell configuration of the patch-clamp technique is applied. In short: The tip of a borosilicate pipette (resistance 2-4 MΩ) is gently placed on the cell membrane using remote control systems. Light suction results in the formation of a giga seal (pipette resistance increases to more than 1 GΩ) and the cell membrane underneath the pipette is then ruptured by more powerful suction. Cell capacitance is electronically compensated and the resistance between the pipette and the cell interior (the series resistance, Rs) is measured and compensated for. […]
The intracellular (pipette) solution contained: 154 mM KCl, 10 mM HEPES, 10 mM EGTA. Concentrations of CaCl2 and MgCl2 needed to obtain the desired free concentrations of Ca^2+ (0.3-0.4 μM, Mg^2+ always 1 mM) were calculated by EqCal software (Cambridge, UK) and added.
After establishment of the whole-cell configuration, voltage-ramps (normally −80 to +80 mV) are applied to the cell every 5 seconds from a holding potential of 0 mV. […] Active compounds are quantified by calculating the change in baseline current at −75 mV. […]
On the technique in general: The patch-clamp technique gives a direct electrical read-out from membranes.

The structures appear in SMILES notation.

For 13 compounds, SC100 and melting point results are on record in US8415358B2, “Pyrazine derivatives and their use as potassium channel modulators” (Neurosearch A/S, priority 2007, dated 2013).

For the compound `Clc1ccc(Nc2cncc(-c3nccs3)n2)cc1` [Compound 8.4, (4-Chloro-phenyl)-(6-thiazol-2-yl-pyrazin-2-yl)-amine], the SC100 in data set [1] amounted to 0.30 µM.

Broadly, the melting point is the temperature of the solid-liquid transition. The compound `Cc1cccc(-c2cncc(Nc3ccc(Cl)cc3)n2)n1` [Compound 8.1, (4-Chloro-phenyl)-[6-(6-methyl-pyridin-2-yl)-pyrazin-2-yl]-amine] displayed a melting point of 186 to 188 °C.

Take `Cc1cc(C)n(-c2cnc(/C=N/O)c(Nc3ccc(Cl)cc3)n2)n1` [Compound 20.1, 3-(4-Chloro-phenylamino)-5-(3,5-dimethyl-pyrazol-1-yl) -pyrazine-2-carbaldehyde oxime]: the melting point lay within 228 to 231 °C. The compound also gave an SC100 in data set [1] of 0.075 µM.

Consider `Clc1ccc(Nc2cncc(-n3cc4ccccc4n3)n2)cc1` [Compound 3.1, (4-Chloro-phenyl)-(6-indazol-2-yl-pyrazin-2-yl)-amine], for which the melting point lay within 249 to 252 °C.

On to `Clc1ccc(Nc2cncc(-n3cccn3)n2)cc1` [Compound 3, (4-Chloro-phenyl)-(6-pyrazol-1-yl-pyrazin-2-yl)-amine], for which the melting point is 155 to 157 °C.

Turning to `CCNc1ncc(Nc2ccc(Cl)cc2)nc1-n1nc(C)cc1C` [Compound 27.2, 5-(4-Chloro-phenylamino)-3-(3,5-dimethyl-pyrazol-1-yl)-2-ethylamino-pyrazine], the melting point was 122 to 124 °C.

The compound `Cc1cc(C)n(-c2cncc(Nc3ccc(Cl)cc3)n2)n1` [Compound 4, (4-Chloro-phenyl)-[6-(3,5-dimethyl-pyrazol-1-yl)-pyrazin-2-yl]-amine] came in with a melting point of 157 to 158.9 °C. The compound also registered an SC100 in data set [1] of 0.25 µM.

Turning to `COCc1ncc(Nc2ccc(Cl)cc2)nc1-n1nc(C)cc1C` [Compound 17.1], the melting point was in the range of 147 to 151 °C.

In turn, `Clc1ccc(Nc2cncc(-n3ncc4ccccc43)n2)cc1` [Compound 3.2, (4-Chloro-phenyl)-(6-indazol-1-yl-pyrazin-2-yl)-amine] gave a melting point of 204 to 207 °C.

The compound `CC(=O)NCc1ncc(-n2nc(C)cc2C)nc1Nc1ccc(Cl)cc1` [Compound 22.1, N-[3-(4-Chloro-phenylamino)-5-(3,5-dimethyl-pyrazol-1-yl)-pyrazin-2-ylmethyl]-acetamide] returned a melting point of 228 to 230 °C.

In turn, `Cc1cc(C)n(-c2cnc(CN)c(Nc3ccc(Cl)cc3)n2)n1` [Compound 21.1, [3-Aminomethyl-6-(3,5-dimethyl-pyrazol-1-yl)-pyrazin-2-yl]-(4-chloro-phenyl)-amine] yielded a melting point of 156 to 160 °C.

In turn, `Cc1cc(C)n(-c2cnc(CN(C)C)c(Nc3ccc(Cl)cc3)n2)n1` [Compound 14.1, (4-Chloro-phenyl)-[3-dimethylaminomethyl-6-(3,5-dimethyl-pyrazol-1-yl)-pyrazin-2-yl]-amine] returned a melting point of 112 to 114 °C.

`COCc1ncc(-n2nc(C)cc2C)nc1Nc1ccc(Cl)cc1` [Compound 16.1, (4-Chloro-phenyl)-[6-(3,5-dimethyl-pyrazol-1-yl)-3-methoxymethyl-pyrazin-2-yl]-amine] gave a melting point of 105 to 108 °C.
